Test results as given in patent publication US20180228799A1, “Treatment for Neurological and Mental Disorders” (PSYCHOGENICS, INC., priority 2008, published 2018).
Entries after “also recorded” stand apart in the source; their conditions may differ.

Assays:
[1] = tested on: symptoms of ADHD in adults; test: Clinical Global Impressions-Improvement (CGI-I), same trial; type: in vivo, human; settings: 14 days; for CGI-I, percent of subjects showing improvement: b136 all subjects
Description: (§1) This double-blind, multiple-dose, placebo-controlled, crossover study was conducted to assess the effects of 14 days of oral eltoprazine treatment in 48 adults with ADHD. Subjects eligible for study enrollment were to have met Diagnostic and Statistical Manual of Mental Disorders, Fourth Edition, Text Revision (DSM-IV-TR) criteria for ADHD. Assessment was to be made by clinical history, a Structured Clinical Interview for DSM-IV Axis Disorders-Research Version (SCID-RV), and a Conners' Adult ADHD Diagnostic Interview for DSM IV (CAADID).
(§2) Oral doses of eltoprazine hydrochloride were 5 mg/day or 10 mg/day for 14 consecutive days (i.e., 2.5 or 5 mg twice daily (bid), respectively). Eltoprazine hydrochloride was administered in gelatin capsules with calcium hydrogen phosphate, 2H2O, maize starch NF, polyethylene glycol 6000 NF and magnesium stearate NF as excipients.
(§3) Secondary endpoints were evaluated with the Clinical Global Impressions-Improvement (CGI-I) and Continuous Performance Test. (CPT). The CGI-I test is used to determine the […] of improvement.

[2] = tested on: prefrontal cortex (PFC) of C57 mice; test: Microdialysis in the prefrontal cortex; type: in vivo; settings: 3, 10 and 30 mg/kg, six mice per dose group
Description: Microdialysis probes were implanted in the prefrontal cortex; coordinates were: AP+2.0 mm, ML+0.7 mm (under an 8° angle) from bregma, DV −3.3 mm from the dura, with the tooth-bar also set at 0 mm. The active dialysis surface length of the membrane was 2 mm. Microdialysis experiments started 48 h (prefrontal cortex) after surgery. Ringer solution was perfused through the microdialysis probe at a flow at 1.166 μl/min using a high precision pump (KdScientific 220). Mouse dual channel swivels (Type 375/D/22QM, Instech Laboratories, Inc.) connected to PEEK-tubing (ID 0.005,″ OD 0.020″) were used to allow unrestrained movements of the mice. Samples were collected by hand 2.5 h after the start of the dialysis probe perfusion to obtain stable baseline values for the monoamines and their metabolites. The average of the first four samples was calculated and represents the baseline level. Samples were collected every 30 min were analyzed by HPLC with electrochemical detection.
Six mice per dose group were treated with vehicle or eltoprazine at 3 mg/kg, 10 mg/kg and 30 mg/kg.

dopamine receptors = settings: Schipper et al.; read-out: Ki (affinity for dopamine receptors); cited from earlier work
[3] = tested on: symptoms of ADHD in adults; test: ADHD-RS-IV, double-blind placebo-controlled crossover trial in adults with ADHD; type: in vivo, human; settings: for ADHD-RS-IV Inattention subscale, Baseline Score / ADHD-RS-IV Hyperactivity subscale, Baseline Score / ADHD-RS-IV Impulsivity subscale, Baseline Score / ADHD-RS-IV Total score, Baseline Score: before treatment
Description: The primary objective of this study was to compare the effects of two doses of eltoprazine with placebo on symptoms of ADHD in adults. The primary efficacy parameter is the Attention-Deficit/Hyperactivity Disorder Rating Scale-IV (ADHD-RS-IV).
as §1, §2
Primary endpoints were evaluated with the ADHD-RS-IV. After 14 days of treatment with placebo, 5 mg/day, or 10 mg/day eltoprazine, overall symptoms of ADHD were improved as measured by the ADHD-RS-IV, in which higher scores reflect greater impairment.
ADHD-RS-IV, CPT, and CGI-I scores were analyzed separately for those subjects whose baseline score was >40, indicating greater impairment. Twenty-two subjects had baseline ADHD-RS-IV total scores >40.

[4] = tested on: symptoms of ADHD in adults; test: Continuous Performance Test (CPT), same trial; type: in vivo, human; settings: 5 or 10 mg/day, 14 days
Description: as §1, §2, §3

5-HT1A/1B receptor = settings: cited from earlier work
5-HT1B = 5-HT1B (Homo sapiens, UniProt P28222); settings: Schipper et al.; cited from earlier work
5-HT1A = target: T1, 5-HT1A (Homo sapiens, UniProt P08908); settings: Schipper et al.; cited from earlier work
T1 sequence (P08908 1-422): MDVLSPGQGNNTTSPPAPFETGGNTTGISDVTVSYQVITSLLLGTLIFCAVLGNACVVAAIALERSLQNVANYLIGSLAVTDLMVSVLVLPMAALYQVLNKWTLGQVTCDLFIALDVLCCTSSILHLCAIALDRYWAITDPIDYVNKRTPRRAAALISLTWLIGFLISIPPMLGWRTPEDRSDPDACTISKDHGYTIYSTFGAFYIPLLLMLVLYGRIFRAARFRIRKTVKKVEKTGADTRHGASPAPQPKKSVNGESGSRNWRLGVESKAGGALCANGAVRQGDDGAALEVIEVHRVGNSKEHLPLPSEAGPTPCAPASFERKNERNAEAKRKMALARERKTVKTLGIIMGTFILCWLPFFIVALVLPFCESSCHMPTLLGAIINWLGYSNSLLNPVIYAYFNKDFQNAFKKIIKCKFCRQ

5-HT1 = settings: selective with respect to all receptors other than 5-HT1; cited from earlier work
[5] = 5 mg/day oral, 14 days, all patients N = 38
[6] = 5 mg/day oral, all patients N = 38
[7] = 10 mg/day oral, 14 days, all patients N = 37
[8] = 10 mg/day oral, all patients N = 37
[9] = subjects with baseline score >40 (more severe ADHD), 5 mg/day, 14 days

Chain of 5-HT1B (P28222 whole entry, species assumed): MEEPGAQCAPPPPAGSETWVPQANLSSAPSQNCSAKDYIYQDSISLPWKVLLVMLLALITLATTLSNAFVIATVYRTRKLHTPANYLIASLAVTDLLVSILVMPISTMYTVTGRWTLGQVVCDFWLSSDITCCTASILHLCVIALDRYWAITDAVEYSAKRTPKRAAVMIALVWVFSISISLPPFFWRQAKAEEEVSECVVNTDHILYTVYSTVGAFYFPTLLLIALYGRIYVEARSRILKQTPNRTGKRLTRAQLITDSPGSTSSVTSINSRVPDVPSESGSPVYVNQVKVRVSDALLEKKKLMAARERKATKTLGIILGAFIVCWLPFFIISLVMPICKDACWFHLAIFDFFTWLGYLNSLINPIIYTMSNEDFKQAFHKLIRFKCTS

c1cc2c(c(N3CCNCC3)c1)OCCO2 [Eltoprazine, 1-(2,3-dihydro-1,4-benzodioxanyl-5-yl) piperazine]
CGI-I Mean Improvement (S.D.) ([1]; 5 mg/day, n = 38): 2.6 (1.2)
CGI-I, Number of Patients Improved ([1]; 5 mg/day, n = 38): 26
CGI-I, Number of Patients Not Improved ([1]; 5 mg/day, n = 38): 12
CGI-I, percent of subjects showing improvement ([1]; 5 mg/day, b141/b146 subgroup with baseline score >40): 62%
CGI-I Mean Improvement (S.D.) ([1]; 10 mg/day, n = 37): 2.7 (0.9)
CGI-I, Number of Patients Improved ([1]; 10 mg/day, n = 37): 30
CGI-I, Number of Patients Not Improved ([1]; 10 mg/day, n = 37): 7
CGI-I, percent of subjects showing improvement ([1]; 10 mg/day, b141 subgroup with baseline score >40): 71%
CGI reduction in severity score ([1]; more severely affected population (baseline score >40), 5 mg/day): 14%
Release of dopamine in the PFC ([2]; FIG. 4): significant release; also recorded: dose-related increase
Release of the dopamine metabolite DOPAC in the PFC ([2]; FIG. 5): dose-related increase
Release of the metabolite HVA in the PFC ([2]; FIG. 6): dose-related increase
Release of norepinephrine in the PFC ([2]; FIG. 7): significant release; also recorded: dose-related increase
Ki (dopamine receptors): > 1000 nM
ADHD-RS-IV Inattention subscale, Post Treatment Score ([3]; 5 mg/day oral (2.5 mg bid), 14 days, all patients N = 38): 14.5
ADHD-RS-IV Inattention subscale, Baseline Score ([3]; 5 mg/day oral (2.5 mg bid), all patients N = 38): 23.8
ADHD-RS-IV Hyperactivity subscale, Change from Baseline [3, 5]: −5.9
ADHD-RS-IV Hyperactivity subscale, Change from Baseline (percent decrease) [3, 5]: 47%
ADHD-RS-IV Hyperactivity subscale, Post Treatment Score [3, 5]: 6.6
ADHD-RS-IV Impulsivity subscale, Change from Baseline [3, 5]: −2.7
ADHD-RS-IV Impulsivity subscale, Change from Baseline (percent decrease) [3, 5]: 44%
ADHD-RS-IV Impulsivity subscale, Post Treatment Score [3, 5]: 3.4
ADHD-RS-IV Inattention subscale, Change from Baseline [3, 5]: −9.4
ADHD-RS-IV Inattention subscale, Change from Baseline (percent decrease) [3, 5]: 39%
ADHD-RS-IV Total score, Change from Baseline [3, 5]: −17.9
ADHD-RS-IV Total score, Change from Baseline (percent decrease) [3, 5]: (42%)
ADHD-RS-IV Total score, Post Treatment Score [3, 5]: 24.5
ADHD-RS-IV Total score, Change from Baseline (percent decrease) ([3]; 5 mg/day oral, 14 days, all patients N = 38, listed as eltoprazine): 42%
ADHD-RS-IV Hyperactivity subscale, Baseline Score [3, 6]: 12.5
ADHD-RS-IV Impulsivity subscale, Baseline Score [3, 6]: 6.1
ADHD-RS-IV Total score, Baseline Score [3, 6]: 42.4
ADHD-RS-IV Inattention subscale, Post Treatment Score ([3]; 10 mg/day oral (5 mg bid), 14 days, all patients N = 37): 14.8
ADHD-RS-IV Inattention subscale, Baseline Score ([3]; 10 mg/day oral (5 mg bid), all patients N = 37): 23.8
ADHD-RS-IV Hyperactivity subscale, Change from Baseline [3, 7]: −5.5
ADHD-RS-IV Hyperactivity subscale, Change from Baseline (percent decrease) [3, 7]: 43%
ADHD-RS-IV Hyperactivity subscale, Post Treatment Score [3, 7]: 7.2
ADHD-RS-IV Impulsivity subscale, Change from Baseline [3, 7]: −2.9
ADHD-RS-IV Impulsivity subscale, Change from Baseline (percent decrease) [3, 7]: 47%
ADHD-RS-IV Impulsivity subscale, Post Treatment Score [3, 7]: 3.2
ADHD-RS-IV Inattention subscale, Change from Baseline [3, 7]: −9.0
ADHD-RS-IV Inattention subscale, Change from Baseline (percent decrease) [3, 7]: 38%
ADHD-RS-IV Total score, Change from Baseline [3, 7]: −17.4
ADHD-RS-IV Total score, Change from Baseline (percent decrease) [3, 7]: (41%)
ADHD-RS-IV Total score, Post Treatment Score [3, 7]: 25.3
ADHD-RS-IV Total score, Change from Baseline (percent decrease) ([3]; 10 mg/day oral, 14 days, all patients N = 37, listed as eltoprazine): 41%
ADHD-RS-IV Hyperactivity subscale, Baseline Score [3, 8]: 12.8
ADHD-RS-IV Impulsivity subscale, Baseline Score [3, 8]: 6.1
ADHD-RS-IV Total score, Baseline Score [3, 8]: 42.7
Selective action on ADHD symptoms (inattention, hyperactivity, impulsivity) ([3]; human clinical study in patients with ADHD): predominantly on inattention and hyperactivity and to a lesser degree impulsivity; also recorded: greater activity treating hyperactivity and inattention compared to impulsivity
ADHD-RS-IV hyperactivity subscale score, decrease from baseline (improvement) [3, 9]: 56%
ADHD-RS-IV impulsivity subscale score, decrease from baseline (improvement) [3, 9]: 55%
ADHD-RS-IV inattention subscale score, decrease from baseline (improvement) [3, 9]: 54%
ADHD-RS-IV total score, decrease from baseline [3, 9]: 55%
CPT findings [4]: did not result in any statistically significant findings
Functional mode of action (5-HT1A/1B receptor): mixed 5-HT1A/1B receptor agonist
Binding affinity for 5-HT1B (5-HT1B): roughly equipotent affinity
Binding affinity for 5-HT1A (5-HT1A): roughly equipotent affinity
Binding selectivity (5-HT1): selective 5-HT1 ligand
